| melting point [°C] | Compound |
| --- | --- |
| 65 to 82 | CC(C)(NC(=O)c1c(F)cccc1F)C(=O)c1ccc([C@H]2C[C@@H]2C(F)(F)F)cc1 (racemic) [Compound 19.003, N-[1,1-dimethyl-2-oxo-2-[4-[trans-2-(trifluoromethyl)-1-cyclopropyl]phenyl]ethyl]-2,6-difluoro-benzamide] |
| 115 to 116 | CC(C)(NC(=O)c1c(F)cccc1F)C(=O)c1ccc([C@H]2C[C@@H]2C(=O)O)cc1 (racemic) [Compound 19.061, trans-2-[4-[2-[(2,6-Difluorobenzoyl)amino]-2-methyl-propanoyl]phenyl]cyclopropane carboxylic acid] |
| 197 to 198 | CC(C)(C)OC(=O)N[C@H]1C[C@@H]1c1ccc(C(=O)C(C)(C)NC(=O)c2c(F)cccc2F)cc1 (racemic) [Compound 19.062, trans-tert-Butyl N-[2-[4-[2-[(2,6-difluorobenzoyl)amino]-2-methyl-propanoyl]phenyl]cyclopropyl]carbamate] |
| 121 to 123 | CC(C)(NC(=O)c1c(F)cccc1F)C(=O)c1ccc(C2CC2)cc1 [Compound 19.001, N-[2-(4-cyclopropylphenyl)-1,1-dimethyl-2-oxo-ethyl]-2,6-difluoro-benzamide] |
